Results published in patent US7790727B2, “Benzenesulfonanilide compounds suitable for treating disorders that respond to modulation of the serotonin 5-HT6 receptor” (Abbott GmbH & Co. KG, priority 2007, dated 2010).
Where a name gives a salt, the structure may show the parent alone.

molecular target: T1, h-5-HT6 receptor (Homo sapiens, UniProt P50406); test: 5-HT6 receptor binding assay (displacement of [3H]-LSD); conditions: not given
T1 construct: expressed in transfected cells
Method: Displacement of radioligands binding to the following cloned human receptors
1. Preparation of Membranes by Ultrasonic Treatment and Differential Centrifugation
Cells from stable clonal cell lines expressing the corresponding receptor (5-HT6, α1-adrenergic, dopamine D2 or histamine H1 receptors) were washed with PBS (w/o Ca^++, Mg^++) and harvested in PBS with 0.02% EDTA. The cells were collected by centrifugation at 500 g for 10 min. at 4° C., washed with PBS and centrifuged (500 g, 10 min. 4° C.). The pellets were stored at −80° C. until use. F or membrane preparation, the thawed cell pellet was resuspended in ice-cold sucrose buffer (0.25 M sucrose, 10 mM Hepes (pH 7.4), 1 mM Phenylmethylsulfonyl fluoride (PMSF) in DMSO, 5 μg/ml Pepstatin-A, 3 mM EDTA, 0.025% Bacitracin) and homogenized with a Branson Sonifier W-250 (Settings: Timer 4; Output Control 3; Duty Cycle constant; 2 to 3 cycles). Cell disruption was checked with the aid of a microscope. Remaining unbroken cells were pelleted at 1.000 g for 10 min. at 4° C. The sucrose buffer supernatant was then centrifuged at 60.000 g for 1 h at 4° C. (Beckman Ultrazentrifuge XL 80). The pellet was resuspended in 30 ml ice-cold Tris buffer (20 mM TRIS (pH 7.4), 5 μg/ml Pepstatin A, 0.1 mM PMSF, 3 mM EDTA) by pipetting through a 10 ml serological pipet and centrifuged for 1 h at 4° C. at 60.000 g. A final resuspension was performed in a small volume of ice-cold Tris buffer (see above) by pressing through a serological pipet followed by ultrasonic treatment with a Branson Sonifier W-250 (Settings: Timer 1; Output Control 3; Duty Cycle constant; 1 cycle). Protein concentration was determined (BCA-Kit; Pierce) and aliquots stored at −80° C. or in liquid nitrogen for long-term storage.
2. Receptor Binding Experiments
All receptor binding experiments were carried out in the corresponding assay buffer in a total volume of 200 μl in the presence of various concentrations of test compound (10^−5 M to 10^−9 M, tenfold serial dilution, duplicate determinations). The assays were terminated by filtration on polyethylenimine (PEI 0.1% or 0.3%) presoaked Packard Unifilter Plates (GF/C or GF/B) with a Tomtec Machill U 96 well-plate harvester. After the plates had been dried for 2 h at 55° C. in a drying chamber scin tillation cocktail (BetaPlate Scint; PerkinElmer) was added. Radioactivity was measured in a Microbeta Trilux two hours after the addition of the scintillation mixture. Data derived from liquid scintillation counting were analysed by iterative non-linear regression analysis with the use of the Statistical Analysis System (SAS): a program similar to “LIGAND” as described by Munson and Rodbard (Analytical Biochemistry 107, 220-239 (1980).
a) 5-HT6 Receptor Binding Assay
HEK293 cells stably expressing the h-5-HT6 receptor (NCBI Reference Sequence XM 001435) were cultured in RPMI1640 medium supplemented with 25 mM HEPES, 10% fetal calf serum and 1-2 mM glutamine. The membrane preparation was performed as described in section 1. […] Non-specific binding was defined with 1 μM methiothepin. The binding reaction was carried out for 3.5 h at room temperature. During the incubation, the plates were shaken on a plate shaker at 100 rpm and terminated by filtration on Packard Unifilter GF/C (0.1% PEI) plates, followed by 2 wash cycles with ice-cold 50 mM Tris-HCl, 5 mM CaCl2.
Data derived from liquid scintillation counting were analyzed by iterative non-linear regression analysis with the use of the Statistical Analysis System (SAS): a program similar to “LIGAND” as described by Munson and Rodbard (Anal. Biochem. 1980, 107, 220-239). Fitting was performed according to formulae described by Feldman (Anal. Biochem. 1972, 48, 317-338). IC50, nH and Ki values were expressed as geometrical mean.

T1 sequence (P50406 whole entry): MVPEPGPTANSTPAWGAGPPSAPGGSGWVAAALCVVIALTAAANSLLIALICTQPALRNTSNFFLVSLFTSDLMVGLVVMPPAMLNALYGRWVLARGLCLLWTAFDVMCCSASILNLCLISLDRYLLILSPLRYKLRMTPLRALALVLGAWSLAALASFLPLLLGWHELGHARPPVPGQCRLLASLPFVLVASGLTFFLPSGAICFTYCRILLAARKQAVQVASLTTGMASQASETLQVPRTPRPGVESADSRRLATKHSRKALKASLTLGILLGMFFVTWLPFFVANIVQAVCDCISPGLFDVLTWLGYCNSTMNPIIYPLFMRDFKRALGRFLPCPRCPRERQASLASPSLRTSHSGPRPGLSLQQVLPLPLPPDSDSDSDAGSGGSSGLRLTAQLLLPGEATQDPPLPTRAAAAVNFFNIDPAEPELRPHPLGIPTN

For `O=S(=O)(Nc1ccc(F)c(N2CCNCC2)c1)c1cccc(OC(F)F)c1` [Example 26, 3-Difluoromethoxy-N-(4-fluoro-3-piperazin-1-yl-phenyl)-benzenesulfonamide Hydrochloride], the Ki was < 50 nM.

same assay, conditions: membranes of HEK293 cells expressing h-5-HT6 receptor, 1 nM [3H]-LSD; read-out: Ki(5HT6)

`COc1ccc(NS(=O)(=O)c2cccc(OC(F)F)c2)cc1N1CCNCC1` [Example 1, 3-Difluoromethoxy-N-(4-methoxy-3-piperazin-1-yl-phenyl)-benzenesulfonamide Hydrochloride] and `O=S(=O)(Nc1ccc(OCCF)c(N2CCNCC2)c1)c1cccc(OC(F)F)c1` [Example 11, 3-Difluoromethoxy-N-[4-(2-fluoroethoxy)-3-piperazin-1-yl-phenyl]-benzenesulfonamide Hydrochloride] cannot be ordered by Ki: < 10 nM for the first, < 10 nM for the second.

`COc1ccc(N(C)S(=O)(=O)c2cccc(OC(F)F)c2)cc1N1CCNCC1` [Example 2, 3-Difluoromethoxy-N-(4-methoxy-3-piperazin-1-yl-phenyl)-N-methyl-benzene-sulfonamide Hydrochloride] and `CCCN(c1ccc(OC)c(N2CCNCC2)c1)S(=O)(=O)c1cccc(OC(F)F)c1` [Example 18, 3-Difluoromethoxy-N-(4-methoxy-3-piperazin-1-yl-phenyl)-N-propyl-benzene-sulfonamide Hydrochloride] cannot be ordered by Ki: < 20 nM for the first, < 50 nM for the second.

`COc1ccc(NS(=O)(=O)c2ccc(OC(F)F)cc2)cc1N1CCN(C)CC1` [Example 3, 4-Difluoromethoxy-N-[4-methoxy-3-(4-methyl-piperazin-1-yl)-phenyl]-benzenesulfonamide] and `COc1ccc(NS(=O)(=O)c2cccc(OC(F)F)c2)cc1N1CCN(C)CC1` [Example 25, 3-Difluoromethoxy-N-[4-methoxy-3-(4-methyl-piperazin-1-yl)-phenyl]-benzenesulfonamide] cannot be ordered by Ki: < 20 nM for the first, < 10 nM for the second.

`COc1ccc(NS(=O)(=O)c2cccc3c2OC(F)(F)O3)cc1N1CCNCC1` [Example 4, 2,2-Difluoro-benzo[1,3]dioxole-4-sulfonic Acid (4-methoxy-3-piperazin-1-yl-phenyl)-amide Hydrochloride] and `O=S(=O)(Nc1ccc(F)c(N2CCNCC2)c1)c1cccc2c1OC(F)(F)O2` [Example 27, 2,2-Difluoro-benzo[1,3]dioxole-4-sulfonic acid (4-fluoro-3-piperazin-1-yl-phenyl)-amide Hydrochloride] cannot be ordered by Ki: < 10 nM for the first, < 50 nM for the second.

`O=S(=O)(Nc1ccc(OC(F)(F)F)c(N2CCNCC2)c1)c1cccc(OC(F)F)c1` [Example 6, 3-Difluoromethoxy-N-(3-piperazin-1-yl-4-trifluoromethoxy-phenyl)-benzenesulfonamide] and `CN1CCN(c2cc(NS(=O)(=O)c3cccc(OC(F)F)c3)ccc2OC(F)(F)F)CC1` [Example 20, 3-Difluoromethoxy-N-[3-(4-methyl-piperazin-1-yl)-4-trifluoromethoxy-phenyl]-benzenesulfonamide Hydrochloride] cannot be ordered by Ki: < 20 nM for the first, < 10 nM for the second.

`O=S(=O)(Nc1ccc(OC(F)F)c(N2CCNCC2)c1)c1ccccc1OC(F)F` [Example 7, 2-Difluoromethoxy-N-(3-piperazin-1-yl-4-difluoromethoxy-phenyl)-benzenesulfonamide Trifluoroacetate] and `COc1ccc(NS(=O)(=O)c2ccccc2OC(F)F)cc1N1CCNCC1` [Example 14, 2-Difluoromethoxy-N-(4-methoxy-3-piperazin-1-yl-phenyl)-benzenesulfonamide Trifluoroacetate] cannot be ordered by Ki: < 50 nM for the first, < 10 nM for the second.

`COc1ccc(NS(=O)(=O)c2cc(OC(F)F)ccc2OC)cc1N1CCNCC1` [Example 8, 5-Difluoromethoxy-2-methoxy-N-(4-methoxy-3-piperazin-1-yl-phenyl)-benzene-sulfonamide Hydrochloride] and `COc1ccc(S(=O)(=O)Nc2ccc(OC)c(N3CCNCC3)c2)cc1OC(F)F` [Example 13, 3-Difluoromethoxy-4-methoxy-N-(4-methoxy-3-piperazin-1-yl-phenyl)-benzenesulfonamide Hydrochloride] cannot be ordered by Ki: < 10 nM for the first, < 10 nM for the second.

`COc1c(F)cc(NS(=O)(=O)c2cccc(OC(F)F)c2)cc1N1CCNCC1` [Example 9, 3-Difluoromethoxy-N-(3-fluoro-4-methoxy-5-piperazin-1-yl-phenyl)-benzenesulfonamide Hydrochloride] and `COc1cc(Cl)c(NS(=O)(=O)c2cccc(OC(F)F)c2)cc1N1CCNCC1` [Example 19, N-(2-Chloro-4-methoxy-5-piperazin-1-yl-phenyl)-3-difluoromethoxy-benzene-sulfonamide Trifluoroacetate] cannot be ordered by Ki: < 50 nM for the first, < 50 nM for the second.

`COc1c(F)cc(NS(=O)(=O)c2cccc3c2OC(F)(F)O3)cc1N1CCNCC1` [Example 10, 2,2-Difluoro-benzo[1,3]dioxole-4-sulfonic acid (3-fluoro-4-methoxy-5-piperazin-1-yl-phenyl)-amide Hydrochloride] and `O=S(=O)(Nc1ccc(OCCF)c(N2CCNCC2)c1)c1cccc2c1OC(F)(F)O2` [Example 12, 2,2-Difluoro-benzo[1,3]dioxole-4-sulfonic acid (4-(2-fluoroethoxy)-5-piperazin-1-yl-phenyl)-amide Hydrochloride] cannot be ordered by Ki: < 10 nM for the first, < 50 nM for the second.

`COc1ccc(NS(=O)(=O)c2ccc(OC(F)F)cc2)cc1N1CCNCC1` [Example 15, 4-Difluoromethoxy-N-(4-methoxy-3-piperazin-1-yl-phenyl)-benzenesulfonamide Hydrochloride] and `COc1ccc(N(CCCF)S(=O)(=O)c2cccc(OC(F)F)c2)cc1N1CCNCC1` [Example 17, 3-Difluoromethoxy-N-(3-fluoropropyl)-N-(4-methoxy-3-piperazin-1-yl-phenyl)-benzenesulfonamide Hydrochloride] cannot be ordered by Ki: < 50 nM for the first, < 50 nM for the second.

`CCN(c1ccc(OC)c(N2CCN(C)CC2)c1)S(=O)(=O)c1cccc(OC(F)F)c1` [Example 16, 3-Difluoromethoxy-N-ethyl-N-[4-methoxy-3-(4-methyl-piperazin-1-yl)-phenyl]-benzenesulfonamide Hydrochloride] and `COc1ccc(N(C)S(=O)(=O)c2cccc(OC(F)F)c2)cc1N1CCN(C)CC1` [Example 24, 3-Difluoromethoxy-N-[4-methoxy-3-(4-methyl-piperazin-1-yl)-phenyl]-N-methyl-benzenesulfonamide Hydrochloride] cannot be ordered by Ki: < 10 nM for the first, < 10 nM for the second.

`COc1ccc(N(C)S(=O)(=O)c2cccc3c2OC(F)(F)O3)cc1N1CCN(C)CC1` [Example 21, 2,2-Difluoro-benzo[1,3]dioxole-4-sulfonic acid [4-methoxy-3-(4-methyl-piperazin-1-yl)-phenyl]-methyl-amide Hydrochloride] and `COc1ccc(N(C)S(=O)(=O)c2cccc3c2OC(F)(F)O3)cc1N1CCNCC1` [Example 23, 2,2-Difluoro-benzo[1,3]dioxole-4-sulfonic acid methyl-(4-methoxy-3-piperazin-1-yl-phenyl)-amide Hydrochloride] cannot be ordered by Ki: < 50 nM for the first, < 50 nM for the second.

`CCN(c1ccc(OC)c(N2CCNCC2)c1)S(=O)(=O)c1cccc2c1OC(F)(F)O2` [Example 22, 2,2-Difluoro-benzo[1,3]dioxole-4-sulfonic acid ethyl-(4-methoxy-3-piperazin-1-yl-phenyl)-amide Hydrochloride] and `O=S(=O)(Nc1cccc(N2CCNCC2)c1)c1cccc(OC(F)F)c1` [Example 28, 3-Difluoromethoxy-N-(3-piperazin-1-yl-phenyl)-benzenesulfonamide Hydrochloride] cannot be ordered by Ki: < 50 nM for the first, < 50 nM for the second.
